Data published in US9422267B2, “Fused pyrimidine compounds and use thereof” (Medivation Technologies, Inc., priority 2012, dated 2016).

Columns and labels:
Abl(H396P) = biological target: T1, Abl(H396P) (Homo sapiens, UniProt P00519, H396P); test: Caliper kinase profiling: Abl(H396P); format: biochemical; conditions: read-out: Average % Inh @ 1 μM
T1 construct: purchased Caliper LifeSciences (ProfilerPro Kinase Selectivity Assay Kits)

FLT4 = FLT4 (Homo sapiens, UniProt P35916); test: Caliper kinase profiling: FLT4; format: biochemical; conditions: FLT4, 1 μM; read-out: Average % Inh @ 1 μM
BLK = biological target: T2, BLK (Homo sapiens, UniProt P51451); test: Caliper kinase profiling: BLK; format: biochemical
T2 construct: purchased Caliper LifeSciences (ProfilerPro Kinase Selectivity Assay Kits)

Fer = Fer (Homo sapiens, UniProt P16591); test: Caliper kinase profiling: Fer; format: biochemical
EPHA4 = EPHA4 (Homo sapiens, UniProt P54764); test: Caliper kinase profiling: EPHA4; format: biochemical; conditions: EPHA4, 1 μM; read-out: Average % Inh @ 1 μM
EPHA3 = EPHA3 (Homo sapiens, UniProt P29320); test: Caliper kinase profiling: EPHA3; format: biochemical; conditions: EPHA3, 1 μM; read-out: Average % Inh @ 1 μM
ITK = ITK (Homo sapiens, UniProt Q08881); test: Caliper kinase profiling: ITK; format: biochemical; conditions: read-out: Average % Inh @ 1 μM
DDR2 = DDR2 (Homo sapiens, UniProt Q16832); test: Caliper kinase profiling: DDR2; format: biochemical; conditions: DDR2, 1 μM; read-out: Average % Inh @ 1 μM
MST2 = biological target: T3, MST2 (Homo sapiens, UniProt Q13188); test: Caliper kinase profiling: MST2; format: biochemical
T3 sequence (Q13188 1-491): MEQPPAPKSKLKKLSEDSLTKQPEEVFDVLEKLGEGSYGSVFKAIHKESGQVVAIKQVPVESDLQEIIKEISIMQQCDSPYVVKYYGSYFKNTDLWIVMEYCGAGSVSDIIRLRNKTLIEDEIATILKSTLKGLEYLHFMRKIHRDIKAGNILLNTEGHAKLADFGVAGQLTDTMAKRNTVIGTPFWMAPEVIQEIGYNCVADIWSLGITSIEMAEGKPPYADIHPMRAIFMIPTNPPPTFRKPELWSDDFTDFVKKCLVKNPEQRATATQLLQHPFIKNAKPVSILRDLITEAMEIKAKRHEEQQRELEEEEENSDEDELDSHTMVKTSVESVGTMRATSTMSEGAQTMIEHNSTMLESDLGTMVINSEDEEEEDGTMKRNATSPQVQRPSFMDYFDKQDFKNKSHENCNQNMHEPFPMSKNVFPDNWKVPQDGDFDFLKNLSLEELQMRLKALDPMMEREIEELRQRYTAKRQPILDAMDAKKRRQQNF

ALK = biological target: T4, ALK (Homo sapiens, UniProt Q9UM73); test: Caliper kinase profiling: ALK; format: biochemical
T4 construct: purchased Caliper LifeSciences (ProfilerPro Kinase Selectivity Assay Kits)

[1] = test system: human colon cancer COLO-205 cells; test: Efficacy in xenograft model of human colon cancer; format: in vivo, mice
Procedure: To evaluate the efficacy of tumor growth inhibition, the compound 8b was studied using human cancer mouse models. The models are prepared by subcutaneously or orthotopically implanting mice with human cancer cells. When the tumor size of the mice develops (e.g., reaches 100 mm^3), the mice are divided into groups for treatment with compound 8b (where different groups receiving the compound 8b may be administered different amounts of the compound 8b) or are provided no compound as a control. The mice are treated (e.g., orally administered a compound of the invention) for a period of time. During the course of the study, the tumor is measured and the weight of the mice is determined. After the treatment period, the mice are sacrificed shortly (e.g. 1 or 2 hours) after the final dose. Blood and tissue are collected for biochemical analysis.
To evaluate the efficacy of tumor growth inhibition, compound 8b was studied using a human colon cancer mouse model. […] Tumor volume and mouse body weight were monitored over the 20 day experiment. […]
The appropriate amount of compound 8b was sonicated in a PEG-400 solution (80% w/v in case of Example B6B; and 50% w/v in case of Example B6C) to completely dissolve the compound, followed by dropwise addition of the required amount of H2O. […] During the course of the study, the tumor was measured and the weight of the mice was determined. […]

[2] = 10 nM, read-out: Average % Inh @ 10 nM
[3] = 100 nM, read-out: Average % Inh @ 100 nM
[4] = 1 μM, read-out: Average % Inh @ 1 μM

Chain of Fer (P16591 whole entry): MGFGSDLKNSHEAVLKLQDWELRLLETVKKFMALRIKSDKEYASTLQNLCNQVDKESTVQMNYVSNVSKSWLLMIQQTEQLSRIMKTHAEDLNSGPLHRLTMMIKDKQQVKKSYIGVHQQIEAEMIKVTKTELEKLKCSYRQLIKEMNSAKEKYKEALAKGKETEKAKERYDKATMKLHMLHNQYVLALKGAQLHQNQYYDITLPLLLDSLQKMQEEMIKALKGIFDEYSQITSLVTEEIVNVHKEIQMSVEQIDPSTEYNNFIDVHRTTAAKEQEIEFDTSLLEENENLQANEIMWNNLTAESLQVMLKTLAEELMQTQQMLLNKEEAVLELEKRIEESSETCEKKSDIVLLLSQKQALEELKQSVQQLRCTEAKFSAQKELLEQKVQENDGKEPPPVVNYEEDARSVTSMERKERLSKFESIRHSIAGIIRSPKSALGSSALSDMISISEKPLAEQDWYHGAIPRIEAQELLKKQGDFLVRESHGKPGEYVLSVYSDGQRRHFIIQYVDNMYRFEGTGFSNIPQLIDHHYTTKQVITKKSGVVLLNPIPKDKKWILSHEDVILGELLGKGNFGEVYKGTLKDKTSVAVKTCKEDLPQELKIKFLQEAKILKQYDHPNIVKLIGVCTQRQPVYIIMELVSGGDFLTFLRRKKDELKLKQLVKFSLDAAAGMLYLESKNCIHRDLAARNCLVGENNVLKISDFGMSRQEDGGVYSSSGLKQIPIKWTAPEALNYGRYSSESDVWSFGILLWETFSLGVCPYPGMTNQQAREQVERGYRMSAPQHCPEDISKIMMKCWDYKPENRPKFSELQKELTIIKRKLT
T2 sequence (P51451 whole entry): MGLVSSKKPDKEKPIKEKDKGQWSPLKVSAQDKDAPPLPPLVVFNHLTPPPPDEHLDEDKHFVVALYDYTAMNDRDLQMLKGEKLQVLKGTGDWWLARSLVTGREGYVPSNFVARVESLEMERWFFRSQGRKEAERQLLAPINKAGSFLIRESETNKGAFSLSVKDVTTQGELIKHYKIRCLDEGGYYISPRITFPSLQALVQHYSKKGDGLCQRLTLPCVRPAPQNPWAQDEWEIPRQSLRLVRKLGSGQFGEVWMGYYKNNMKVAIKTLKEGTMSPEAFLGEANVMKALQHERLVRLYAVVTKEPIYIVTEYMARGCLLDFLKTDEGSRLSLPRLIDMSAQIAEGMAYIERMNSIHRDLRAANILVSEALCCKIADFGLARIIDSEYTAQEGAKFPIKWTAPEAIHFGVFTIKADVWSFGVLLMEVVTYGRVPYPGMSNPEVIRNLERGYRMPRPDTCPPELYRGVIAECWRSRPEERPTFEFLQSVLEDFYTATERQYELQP
T4 sequence (Q9UM73 19-1620): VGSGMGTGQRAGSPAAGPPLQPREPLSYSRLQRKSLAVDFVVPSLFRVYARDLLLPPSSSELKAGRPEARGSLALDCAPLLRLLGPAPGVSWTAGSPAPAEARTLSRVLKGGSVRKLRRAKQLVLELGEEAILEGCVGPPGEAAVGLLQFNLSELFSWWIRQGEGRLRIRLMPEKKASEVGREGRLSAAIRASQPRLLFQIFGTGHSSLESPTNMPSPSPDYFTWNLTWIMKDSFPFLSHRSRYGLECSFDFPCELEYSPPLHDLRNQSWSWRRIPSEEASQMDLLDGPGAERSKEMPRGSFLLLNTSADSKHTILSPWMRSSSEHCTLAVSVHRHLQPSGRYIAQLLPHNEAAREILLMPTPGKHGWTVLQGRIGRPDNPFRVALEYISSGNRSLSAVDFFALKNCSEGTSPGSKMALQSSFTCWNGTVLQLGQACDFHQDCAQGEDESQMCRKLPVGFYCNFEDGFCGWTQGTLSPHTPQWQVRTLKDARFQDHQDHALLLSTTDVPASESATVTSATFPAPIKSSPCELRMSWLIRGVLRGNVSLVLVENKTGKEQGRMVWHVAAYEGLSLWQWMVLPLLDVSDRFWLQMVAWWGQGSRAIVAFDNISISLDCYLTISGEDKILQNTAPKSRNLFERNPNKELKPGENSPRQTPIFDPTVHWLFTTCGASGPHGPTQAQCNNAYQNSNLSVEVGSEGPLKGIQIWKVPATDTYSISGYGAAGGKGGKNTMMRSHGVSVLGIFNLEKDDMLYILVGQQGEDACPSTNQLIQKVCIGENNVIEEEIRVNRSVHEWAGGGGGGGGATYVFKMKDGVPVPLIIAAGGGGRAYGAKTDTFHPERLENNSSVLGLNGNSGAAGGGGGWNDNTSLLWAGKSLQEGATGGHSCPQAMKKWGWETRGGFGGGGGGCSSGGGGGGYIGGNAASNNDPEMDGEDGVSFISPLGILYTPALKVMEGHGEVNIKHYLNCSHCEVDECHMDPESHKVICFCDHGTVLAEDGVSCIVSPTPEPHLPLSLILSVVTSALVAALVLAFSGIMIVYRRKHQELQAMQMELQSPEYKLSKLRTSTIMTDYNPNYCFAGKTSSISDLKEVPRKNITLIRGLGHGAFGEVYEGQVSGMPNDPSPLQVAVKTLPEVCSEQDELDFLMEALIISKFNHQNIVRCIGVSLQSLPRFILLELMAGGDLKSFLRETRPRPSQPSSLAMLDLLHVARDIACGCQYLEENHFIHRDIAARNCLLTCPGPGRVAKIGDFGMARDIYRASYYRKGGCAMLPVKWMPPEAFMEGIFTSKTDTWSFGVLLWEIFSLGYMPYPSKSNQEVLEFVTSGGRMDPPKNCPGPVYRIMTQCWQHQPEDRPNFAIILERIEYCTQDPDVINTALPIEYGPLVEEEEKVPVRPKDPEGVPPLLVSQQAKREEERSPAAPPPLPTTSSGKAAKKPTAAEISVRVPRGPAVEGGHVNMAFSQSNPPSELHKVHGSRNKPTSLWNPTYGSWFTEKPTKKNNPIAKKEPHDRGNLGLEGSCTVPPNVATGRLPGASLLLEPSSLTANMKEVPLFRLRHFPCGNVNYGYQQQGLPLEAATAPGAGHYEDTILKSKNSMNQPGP
Chain of DDR2 (Q16832 22-855): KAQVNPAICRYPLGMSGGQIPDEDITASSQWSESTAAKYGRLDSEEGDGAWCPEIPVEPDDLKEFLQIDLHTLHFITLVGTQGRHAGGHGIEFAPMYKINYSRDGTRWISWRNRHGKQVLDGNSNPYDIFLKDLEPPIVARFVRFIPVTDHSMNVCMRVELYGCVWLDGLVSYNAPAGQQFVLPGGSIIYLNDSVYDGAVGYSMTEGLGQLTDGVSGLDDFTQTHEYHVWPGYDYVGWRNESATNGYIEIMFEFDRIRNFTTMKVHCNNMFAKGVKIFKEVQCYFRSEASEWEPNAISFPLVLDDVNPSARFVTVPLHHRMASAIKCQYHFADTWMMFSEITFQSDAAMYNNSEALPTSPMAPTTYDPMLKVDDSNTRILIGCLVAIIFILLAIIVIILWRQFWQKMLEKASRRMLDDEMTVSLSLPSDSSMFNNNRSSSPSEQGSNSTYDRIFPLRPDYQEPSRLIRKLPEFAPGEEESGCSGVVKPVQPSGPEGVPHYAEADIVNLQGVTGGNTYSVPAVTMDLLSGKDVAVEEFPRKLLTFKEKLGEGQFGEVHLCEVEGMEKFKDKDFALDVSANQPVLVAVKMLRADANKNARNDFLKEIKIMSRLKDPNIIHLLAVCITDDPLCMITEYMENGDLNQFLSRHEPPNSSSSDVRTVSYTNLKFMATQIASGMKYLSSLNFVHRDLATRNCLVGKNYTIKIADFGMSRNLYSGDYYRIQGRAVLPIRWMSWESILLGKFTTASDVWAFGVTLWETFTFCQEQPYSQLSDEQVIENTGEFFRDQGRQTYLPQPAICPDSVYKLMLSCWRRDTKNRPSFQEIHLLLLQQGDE
Chain of FLT4 (P35916 25-1363): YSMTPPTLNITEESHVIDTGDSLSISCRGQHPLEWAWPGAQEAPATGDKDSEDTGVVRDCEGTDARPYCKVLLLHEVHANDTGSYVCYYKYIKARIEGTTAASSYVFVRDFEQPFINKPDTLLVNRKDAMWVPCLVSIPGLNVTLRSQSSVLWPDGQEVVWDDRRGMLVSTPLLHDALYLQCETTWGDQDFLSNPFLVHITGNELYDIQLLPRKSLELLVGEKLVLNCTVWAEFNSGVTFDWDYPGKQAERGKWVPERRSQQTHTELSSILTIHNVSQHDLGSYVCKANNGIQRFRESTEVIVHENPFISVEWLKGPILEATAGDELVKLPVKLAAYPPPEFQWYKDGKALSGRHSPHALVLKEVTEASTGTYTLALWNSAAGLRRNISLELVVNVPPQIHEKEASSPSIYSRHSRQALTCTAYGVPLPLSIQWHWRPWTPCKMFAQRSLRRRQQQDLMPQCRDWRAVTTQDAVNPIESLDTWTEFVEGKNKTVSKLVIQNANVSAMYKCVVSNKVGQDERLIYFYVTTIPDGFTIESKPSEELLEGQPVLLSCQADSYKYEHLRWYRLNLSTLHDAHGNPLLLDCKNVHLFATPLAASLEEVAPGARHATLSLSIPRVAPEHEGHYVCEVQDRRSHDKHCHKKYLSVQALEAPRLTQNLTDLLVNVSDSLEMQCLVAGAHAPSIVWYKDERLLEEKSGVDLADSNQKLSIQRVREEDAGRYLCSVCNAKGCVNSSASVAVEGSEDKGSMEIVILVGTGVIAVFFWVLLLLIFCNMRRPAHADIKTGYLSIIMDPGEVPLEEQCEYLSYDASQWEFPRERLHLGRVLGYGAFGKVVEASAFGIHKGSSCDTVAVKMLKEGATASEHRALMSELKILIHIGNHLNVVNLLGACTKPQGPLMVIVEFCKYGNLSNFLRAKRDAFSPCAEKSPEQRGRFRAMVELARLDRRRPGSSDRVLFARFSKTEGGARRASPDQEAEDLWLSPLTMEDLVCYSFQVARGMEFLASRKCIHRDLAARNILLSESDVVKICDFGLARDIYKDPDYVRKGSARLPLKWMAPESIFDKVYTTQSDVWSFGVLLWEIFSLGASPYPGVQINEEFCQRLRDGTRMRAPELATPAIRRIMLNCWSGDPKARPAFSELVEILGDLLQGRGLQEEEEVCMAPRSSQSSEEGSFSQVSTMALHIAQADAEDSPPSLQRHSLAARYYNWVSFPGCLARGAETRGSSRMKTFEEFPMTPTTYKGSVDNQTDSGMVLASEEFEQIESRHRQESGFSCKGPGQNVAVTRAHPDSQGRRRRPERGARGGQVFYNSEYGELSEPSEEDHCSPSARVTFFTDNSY

SMILES | inhibition at 1 µM (Abl(H396P)) [%] | inhibition at 1 µM (FLT4) [%] | inhibition at 0.01 µM (BLK; [2]) [%] | inhibition at 0.1 µM (BLK; [3]) [%] | inhibition at 1 µM (BLK; [4]) [%] | inhibition at 0.01 µM (Fer; [2]) [%] | inhibition at 0.1 µM (Fer; [3]) [%] | inhibition at 1 µM (Fer; [4]) [%] | inhibition at 1 µM (EPHA4) [%] | inhibition at 1 µM (EPHA3) [%] | inhibition at 1 µM (ITK) [%] | inhibition at 1 µM (DDR2) [%] | inhibition at 0.01 µM (MST2; MST2, 10 nM, read-out: Average % Inh @ 10 nM) [%] | inhibition at 0.1 µM (MST2; MST2, 100 nM, read-out: Average % Inh @ 100 nM) [%] | inhibition at 1 µM (MST2; MST2, 1 μM, read-out: Average % Inh @ 1 μM) [%] | inhibition at 0.01 µM (ALK; [2]) [%] | inhibition at 0.1 µM (ALK; [3]) [%] | inhibition at 1 µM (ALK; [4]) [%] | tumor burden ([1]; COLO205 colon cancer model, nude mice, 1, 3, 10, 15 mg/kg oral, 20 day experiment (FIG. 1)) | body weights of the mice ([1]; COLO205 xenograft model (FIG. 3))
O=C(Nc1ccc(F)nc1)C1CCCN1c1nc2c(c(Nc3cc(C4CC4)[nH]n3)n1)CCC2 (single isomer, unassigned) [Compound 2b, 1-(4-(5-cyclopropyl-1H-pyrazol-3-ylamino)-6,7-dihydro-5H-cyclopenta[d]pyrimidin-2-yl)-N-(6-fluoropyridin-3-yl)pyrrolidine-2-carboxamide] | 40 to 59 | 40 to 59 | < 39 | < 39 | > 60 | < 39 | > 60 | > 60 | 40 to 59 | 40 to 59 | 40 to 59 | > 60 | < 39 | < 39 | > 60 | < 39 | < 39 | > 60 | – | –
CC(C)c1cc(Nc2nc(N3CCCC3C(=O)Nc3ccc(F)nc3)nc3c2CCC3)n[nH]1 (single isomer, unassigned) [Compound 8b] | – | – | – | – | – | – | – | – | – | – | – | – | – | – | – | – | – | – | dose-dependently and significantly reduced tumor burden | dose-dependently reduced body weights
